Measurements published in publication PMC10108010, “Fluorogenic Granzyme A Substrates Enable Real‐Time Imaging of Adaptive Immune Cell Activity” (Angewandte Chemie (International Ed. in English), 2023).
Where a SMILES comes first, the peptide text is derived from it. The star is where a group is joined. NH(4-Me-phenyl) = Cc1ccc(N*)cc1; AMC = Cc1cc(=O)oc2cc(N*)ccc12; Cbz = O=C(OCc1ccccc1)*; X1 = Cc1ccc(S*)cc1; X2 = Cc1ccc(O*)cc1

What was measured:
hGzmA = target: T1, hGzmA (Homo sapiens, UniProt P12544); assay: Inhibition by 3,4-dichloroisocoumarin of the fluorescence of compound 9 with hGzmA; assay type: biochemical; conditions: 3,4-dichloroisocoumarin 100 μM, compound 9 20 μM, hGzmA 20 nM, Tris buffer (pH 8)
T1 construct: in the absence or presence of active recombinant hGzmA
T1 sequence (P12544 29-262): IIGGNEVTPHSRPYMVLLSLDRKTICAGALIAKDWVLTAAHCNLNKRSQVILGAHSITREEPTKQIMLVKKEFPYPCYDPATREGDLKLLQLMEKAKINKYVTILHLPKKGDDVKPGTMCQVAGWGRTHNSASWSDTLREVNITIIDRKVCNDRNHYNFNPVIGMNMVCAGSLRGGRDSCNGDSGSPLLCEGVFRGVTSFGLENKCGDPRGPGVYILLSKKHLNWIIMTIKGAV

[1] = tested on: active GzmA secreted by NK-92 cells; assay: Detection of active GzmA in supernatants of stimulated NK-92 cells; assay type: cell-based, human; conditions: supernatants of stimulated NK-92 cells + compound 9
Description: Encouraged by the high reactivity of compound 9, we evaluated its potential application to detect active GzmA secreted by immune cells. NK cell‐based therapies are regarded as potential anticancer treatments due to their ability to secrete granzymes to the extracellular space and cause cytotoxicity in cancer cells.[24] […] To test the utility of compound 9 to measure active GzmA in cell supernatants, we performed degranulation assays in human NK‐92 cells (e.g., a patient‐derived cell line that expresses higher levels of GzmA than healthy NK cells)[25] and also tested GzmA‐negative cells (e.g., HaCaT keratinocytes, Figure S8). NK‐92 cells were stimulated with […] and ionomycin (Figure 5).[26] Cell supernatants were collected and incubated with compound 9 for 1 h, followed by spectroscopic measurements. […] Previous reports indicate that granzyme activity can be detected inside NK‐92 cells[[11b]] and that granzymes can be found within activated immune cells due to intracellular granular leakage,[27] even though granzyme activity is known to be reduced in acidic granules. To study this observation, we performed Z‐stack live‐cell confocal microscopy in NK‐92 cells after incubation with compound 9.
(§1) 5.0) prior to the enzyme assays.
(§2) All the tubes were incubated
(§3) NK- 92 cell inhibition and imaging. […]
(§4) Microsystems) and qualitatively analysed using Fiji.

NK-92 cells = assay: Live-cell confocal microscopy of NK-92 cells; assay type: cell-based, human; conditions: 3,4-dichloroisocoumarin 5 μM, 2 h prior to labeling with compound 9 (5 μM, 1 h)
Method: Figure S9. Brightfield and fluorescence confocal microscopy merged images of live NK-92 cells upon incubation with compound 9. Representative microscopy images from 3 independent experiments of live NK-92 cells upon incubation with […]
dichloroisocoumarin (5 µM) was used as a GzmA inhibitor for 2 h prior to labeling.
as §1, §2, §3, §4

[2] = Chemical stability in aqueous buffers by HPLC-MS (no enzyme); assay type: physicochemical; conditions: for chemical stability at other pH (in words): basic and acid media
Method: Figure 2 Solid‐phase peptide synthesis (SPPS) of the sequence Ac‐IGNR‐OH (compound 1) and corresponding analogues containing spacers with different connectivities. The synthesis of compounds 1–4 is described in the Supporting Information. […] TEXT PRINTED IN THE PICTURE: 2 (ester): pH 4: < 5%; pH 7: < 5%; pH 10: < 5% | 3 (thioester): pH 4: 70%; pH 7: < 5%; pH 10: < 5% | 4 (amide): pH 4: > 95%; pH 7: > 95%; pH 10: > 95%
First, we synthesized a large batch (>400 mg) of Ac‐IGNR‐OH using standard protocols for the solid‐phase synthesis of fluorescent peptides[20] in polystyrene resin derivatized with a 2‐chlorotritylchloride linker (PS‐CTC). Next, we coupled the tetrapeptide Ac‐IGNR‐OH (compound 1, Figure 2) to different aryl groups to generate the isosteric ester, thioester and amide analogues (compounds 2, 3 and 4 respectively, Figure 2). After isolation of all compounds by semi‐preparative HPLC with purities >95 %, we analyzed their chemical stability in aqueous media in the absence of hGzmA. […] We also tested their chemical integrity at different pH values because GzmA can be stored in slightly acidic cytotoxic granules inside CTLs.[21]

[3] = Emission wavelength / spectral properties; assay type: physicochemical; conditions: comparison of compound 9 and Z-FR-AMC
[4] = Tris buffer (pH 7.4), absence of hGzmA, HPLC-MS
[5] = pH 4, aqueous buffer, 2 h at 37 °C, HPLC-MS
[6] = pH 7, aqueous buffer, 2 h at 37 °C, HPLC-MS
[7] = pH 10, aqueous buffer, 2 h at 37 °C, HPLC-MS

With `O=c1oc(Cl)c(Cl)c2ccccc12` [3,4‐dichloroisocoumarin] the “decrease of the fluorescence signal” value (hGzmA) was over 90%, the “effect of inhibitor on supernatant fluorescence (in words)” value [1] was “blocked” and the “effect of inhibitor on intracellular fluorescence (in words)” value (NK-92 cells) was “reduced”.
With `CC[C@H](C)[C@H](NC(C)=O)C(=O)NCC(=O)N[C@@H](CC(N)=O)C(=O)N[C@@H](CCCNC(=N)N)C(=O)Oc1ccc(C)cc1` [compound 2] (Ac-IGNR-X2) the “chemical stability (in words)” value [2, 4] was “completely hydrolyzed”, the “stability (% by HPLC-MS)” value [2, 5] was under 5% and the “stability (% by HPLC-MS)” value [2, 6] was under 5%. The “stability (% by HPLC-MS)” value [2, 7] was under 5%.
For `CC[C@H](C)[C@H](NC(C)=O)C(=O)NCC(=O)N[C@@H](CC(N)=O)C(=O)N[C@@H](CCCNC(=N)N)C(=O)Sc1ccc(C)cc1` [compound 3] (Ac-IGNR-X1), the “chemical stability (in words)” value [2, 4] was “completely hydrolyzed”, the “chemical stability at other pH (in words)” value ([2]; HPLC-MS, 2 h at 37 °C) was “more stable than the carboxylic ester analogue 2 at acidic pH” and the remaining at 2 h [2, 5] was 70%. For the same compound, the “stability (% by HPLC-MS)” value [2, 6] was under 5% and the “stability (% by HPLC-MS)” value [2, 7] was under 5%.
For `CC[C@H](C)[C@H](NC(C)=O)C(=O)NCC(=O)N[C@@H](CC(N)=O)C(=O)N[C@@H](CCCNC(=N)N)C(=O)Nc1ccc(C)cc1` [compound 4] (Ac-IGNR-{NH(4-Me-phenyl)}), the purity after incubation ([2]; Tris buffer (pH 7.4), absence of hGzmA) was over 95%, the “chemical stability (in words)” value [2, 4] was “fully stable” and the “chemical stability at other pH (in words)” value ([2]; HPLC-MS, 2 h at 37 °C) was “stable in basic and acid media”. The “stability (% by HPLC-MS)” value [2, 5] was over 95%, the “stability (% by HPLC-MS)” value [2, 6] was over 95% and the “stability (% by HPLC-MS)” value [2, 7] was over 95%.
For Cbz-Phe-Arg-{AMC}, the emission wavelength [3] was 445 nm.
